Data on seven compounds can be found in ChEMBL document CHEMBL4400520, “Benzofuran-isatin-imine hybrids tethered via different length alkyl linkers: Design, synthesis and in vitro evaluation of anti-tubercular and anti-bacterial activities as well as cytotoxicity” (Eur J Med Chem, 2019).

≈ marks a conversion by molar mass, not a printed value. Bounds are passed on as bounds.

Usually MIC90 stands for an inhibitory concentration at the 90% level, which refers to growth in some studies and to a panel of isolates in others. A word on the MIC: it is the lowest concentration that inhibits growth of the organism. In general, CC50 refers to the concentration giving 50% cytotoxicity.

The subject of one data set is Enterococcus faecalis. The data set is described as follows: Antibacterial activity against Enterococcus faecalis. Type of data set: functional.
For data set [1], the system named is Staphylococcus epidermidis. The data set is described as follows: Antibacterial activity against methicillin-sensitive Staphylococcus epidermidis. It counts as functional.
The next data set has as its system Enterococcus faecium. Description: Antibacterial activity against Enterococcus faecium. Type of data set: functional.
The test system of data set [2] is Staphylococcus aureus. Description: Antibacterial activity against methicillin-sensitive Staphylococcus aureus. It counts as functional.
In a further data set the test system is Klebsiella pneumoniae. The data set is described as follows: Antibacterial activity against Klebsiella pneumoniae. It counts as functional.
The test system of another data set is Enterobacter cloacae. The data set is described as follows: Antibacterial activity against Enterobacter cloacae. Type of data set: functional.
The subject of data set [3] is Staphylococcus aureus. Description: Antibacterial activity against methicillin-resistant Staphylococcus aureus. It counts as functional.
In a further data set the test system is Klebsiella aerogenes. The data set is described as follows: Antibacterial activity against Enterobacter aerogenes. Type of data set: functional.
Data set [4] concerns Acinetobacter calcoaceticus. The data set is described as follows: Antibacterial activity against Acinetobacter calcoaceticus. It counts as functional.
For the next data set, the system named is Proteus mirabilis. The data set is described as follows: Antibacterial activity against Proteus mirabilis. It counts as functional.
In data set [5] the test system is Mycobacterium tuberculosis. Description: Antitubercular activity against Mycobacterium tuberculosis H37Rv. Type of data set: functional.
Another data set has as its system Pseudomonas aeruginosa. Description: Antibacterial activity against Pseudomonas aeruginosa ATCC 27853. It counts as functional.
Data set [6] is described as follows: Selectivity index, ratio of CC50 for African green monkey Vero cells to MIC for Mycobacterium tuberculosis H37Rv. Type of data set: toxicity. The conditions noted are these: read-out: Selectivity Index.
Data set [7] relates to Staphylococcus epidermidis. The data set is described as follows: Antibacterial activity against methicillin-resistant Staphylococcus epidermidis. Type of data set: functional.
The next data set concerns Escherichia coli. The data set is described as follows: Antibacterial activity against Escherichia coli. Type of data set: functional.
Data set [8] in a line: Cytotoxicity against African green monkey Vero cells assessed as reduction in cell viability after 72 hrs by MTT assay. Type of data set: cell-based. Conditions: chlorocebus sabaeus, Vero cells.
A further data set concerns Citrobacter freundii. The data set is described as follows: Antibacterial activity against Citrobacter freundii. Type of data set: functional.

As for `CCOC(=O)c1c(-c2ccc(OC)cc2)oc2ccc(OCCCCCCN3C(=O)/C(=N\NC(N)=S)c4ccccc43)cc12`, the MIC90 is 1 µg/mL (≈ 1.63 µM) against Enterococcus faecalis; 1 µg/mL (≈ 1.63 µM) in data set [1]; 64 µg/mL (≈ 104 µM) against Enterococcus faecium; 1 µg/mL (≈ 1.63 µM) in the data set on Staphylococcus aureus [2]; 8 µg/mL (≈ 13 µM) in the data set with Klebsiella pneumoniae; 1 µg/mL (≈ 1.63 µM) in the data set with Enterobacter cloacae. In addition, the MIC90 in the data set on Staphylococcus aureus [3] is 0.5 µg/mL (≈ 0.813 µM); with Klebsiella aerogenes it was 2 µg/mL (≈ 3.25 µM); in [4], 4 µg/mL (≈ 6.51 µM); with Proteus mirabilis, 1 µg/mL (≈ 1.63 µM); in the data set on Pseudomonas aeruginosa, 4 µg/mL (≈ 6.51 µM); in [7], 4 µg/mL (≈ 6.51 µM). In addition, the MIC90 came out at 1 µg/mL (≈ 1.63 µM) in the data set on Escherichia coli and 2 µg/mL (≈ 3.25 µM) in the data set with Citrobacter freundii. This compound gave an MIC in data set [5] below 0.016 µg/mL. Moreover, in [6], the selectivity ratio is above 500. Also, in [8], the CC50 at 72 h came out at 8 µg/mL (≈ 13 µM).

For `CCOC(=O)c1c(-c2ccccc2)oc2ccc(OCCCN3C(=O)/C(=N\OC)c4cc(OC)ccc43)cc12`, the MIC90 in the data set on Enterococcus faecalis was 1 µg/mL (≈ 1.89 µM); in data set [1], 0.5 µg/mL (≈ 0.946 µM); in the data set with Enterococcus faecium it was 16 µg/mL (≈ 30.3 µM); against Staphylococcus aureus [2], 1 µg/mL (≈ 1.89 µM); in the data set with Klebsiella pneumoniae, 0.5 µg/mL (≈ 0.946 µM); against Enterobacter cloacae, 0.5 µg/mL (≈ 0.946 µM). The MIC90 against Staphylococcus aureus [3] is 4 µg/mL (≈ 7.57 µM); in the data set on Klebsiella aerogenes, 2 µg/mL (≈ 3.78 µM); in data set [4] it was 2 µg/mL (≈ 3.78 µM); against Proteus mirabilis, 2 µg/mL (≈ 3.78 µM); in the data set on Pseudomonas aeruginosa, 1 µg/mL (≈ 1.89 µM); in [7] it was 0.5 µg/mL (≈ 0.946 µM). The MIC90 in the data set on Escherichia coli came to 0.125 µg/mL (≈ 0.236 µM); against Citrobacter freundii, 0.5 µg/mL (≈ 0.946 µM). This compound also showed an MIC in data set [5] below 0.016 µg/mL. Moreover, the selectivity ratio in data set [6] is above 4000. Moreover, the CC50 at 72 h in data set [8] came out at 64 µg/mL (≈ 121 µM).

Consider `CCOC(=O)c1c(-c2ccc(OC)cc2)oc2ccc(OCCCN3C(=O)/C(=N\OC)c4cc(OC)ccc43)cc12`, for which the MIC90 with Enterococcus faecalis was determined as 1 µg/mL (≈ 1.79 µM); in data set [1], 0.25 µg/mL (≈ 0.448 µM); in the data set with Enterococcus faecium it was 8 µg/mL (≈ 14.3 µM); against Staphylococcus aureus [2], 4 µg/mL (≈ 7.16 µM); with Klebsiella pneumoniae, 1 µg/mL (≈ 1.79 µM); in the data set with Enterobacter cloacae it was 0.25 µg/mL (≈ 0.448 µM). The MIC90 with Staphylococcus aureus [3] is 2 µg/mL (≈ 3.58 µM); in the data set with Klebsiella aerogenes it was 0.125 µg/mL (≈ 0.224 µM); in data set [4], 4 µg/mL (≈ 7.16 µM); in the data set on Proteus mirabilis, 0.25 µg/mL (≈ 0.448 µM); in the data set with Pseudomonas aeruginosa, 1 µg/mL (≈ 1.79 µM); in data set [7], 2 µg/mL (≈ 3.58 µM). Besides, the MIC90 in the data set on Escherichia coli came out at 0.25 µg/mL (≈ 0.448 µM); against Citrobacter freundii, 0.5 µg/mL (≈ 0.895 µM). The compound also yielded an MIC in [5] below 0.016 µg/mL. The selectivity ratio in data set [6] was above 8000. The half-maximal cytotoxic concentration (CC50) at 72 h in [8] turned out to be 128 µg/mL (≈ 229 µM).

Turning to `NNC(=O)c1ccncc1` [ISONIAZID], in [5], the MIC is 0.078 µg/mL (≈ 0.569 µM). The selectivity ratio in [6] was 3280. In addition, the CC50 at 72 h in data set [8] was 256 µg/mL (≈ 1870 µM).

Take `CCOC(=O)c1c(-c2ccc(F)cc2)oc2ccc(OCCCCCCN3C(=O)/C(=N\OC)c4cc(F)ccc43)cc12`: the MIC90 in the data set with Enterococcus faecalis amounted to 1 µg/mL (≈ 1.73 µM); in data set [1], 0.25 µg/mL (≈ 0.434 µM); against Enterococcus faecium it was 8 µg/mL (≈ 13.9 µM); with Staphylococcus aureus [2], 2 µg/mL (≈ 3.47 µM); against Klebsiella pneumoniae it was 2 µg/mL (≈ 3.47 µM); in the data set with Enterobacter cloacae, 0.25 µg/mL (≈ 0.434 µM). For the same compound, the MIC90 is 1 µg/mL (≈ 1.73 µM) against Staphylococcus aureus [3]; 0.25 µg/mL (≈ 0.434 µM) with Klebsiella aerogenes; 4 µg/mL (≈ 6.94 µM) in data set [4]; 0.125 µg/mL (≈ 0.217 µM) with Proteus mirabilis; 2 µg/mL (≈ 3.47 µM) in the data set with Pseudomonas aeruginosa; 8 µg/mL (≈ 13.9 µM) in data set [7]. Further, the MIC90 in the data set with Escherichia coli worked out at 0.5 µg/mL (≈ 0.867 µM); in the data set with Citrobacter freundii it was 0.125 µg/mL (≈ 0.217 µM). This compound registered an MIC in data set [5] of 0.218 µg/mL (≈ 0.378 µM). For the same compound, the selectivity ratio in data set [6] worked out at 73. Moreover, the CC50 at 72 h in data set [8] came out at 16 µg/mL (≈ 27.7 µM).

`CCOC(=O)c1c(-c2ccc(F)cc2)oc2ccc(OCCCCCCN3C(=O)C(=O)c4cc(F)ccc43)cc12`: the MIC90 is 2 µg/mL (≈ 3.65 µM) against Enterococcus faecalis; 1 µg/mL (≈ 1.83 µM) in [1]; 16 µg/mL (≈ 29.2 µM) in the data set on Enterococcus faecium; 1 µg/mL (≈ 1.83 µM) in the data set on Staphylococcus aureus [2]; 1 µg/mL (≈ 1.83 µM) in the data set with Klebsiella pneumoniae; 0.5 µg/mL (≈ 0.913 µM) against Enterobacter cloacae. For the same compound, the MIC90 in the data set with Staphylococcus aureus [3] is 2 µg/mL (≈ 3.65 µM); against Klebsiella aerogenes it was 0.125 µg/mL (≈ 0.228 µM); in [4], 4 µg/mL (≈ 7.31 µM); with Proteus mirabilis it was 0.06 µg/mL (≈ 0.11 µM); in the data set on Pseudomonas aeruginosa it was 2 µg/mL (≈ 3.65 µM); in data set [7] it was 4 µg/mL (≈ 7.31 µM). Further, the MIC90 against Escherichia coli turned out to be 0.25 µg/mL (≈ 0.457 µM); against Citrobacter freundii, 0.06 µg/mL (≈ 0.11 µM). In addition, the MIC in data set [5] was below 0.016 µg/mL. Besides, the selectivity ratio in data set [6] was above 32000. In data set [8], the CC50 at 72 h turned out to be 512 µg/mL (≈ 935 µM).

Consider `CCO/N=C1\C(=O)N(CCCCCCOc2ccc3oc(-c4ccc(OC)cc4)c(C(=O)OCC)c3c2)c2ccccc21`, for which the MIC90 against Enterococcus faecalis was 2 µg/mL (≈ 3.42 µM); in [1], 1 µg/mL (≈ 1.71 µM); against Enterococcus faecium, 32 µg/mL (≈ 54.7 µM); in the data set with Staphylococcus aureus [2], 1 µg/mL (≈ 1.71 µM); with Klebsiella pneumoniae, 1 µg/mL (≈ 1.71 µM); against Enterobacter cloacae, 0.5 µg/mL (≈ 0.855 µM). The MIC90 in the data set on Staphylococcus aureus [3] was 1 µg/mL (≈ 1.71 µM); against Klebsiella aerogenes, 0.25 µg/mL (≈ 0.428 µM); in data set [4] it was 2 µg/mL (≈ 3.42 µM); with Proteus mirabilis, 0.25 µg/mL (≈ 0.428 µM); in the data set with Pseudomonas aeruginosa, 1 µg/mL (≈ 1.71 µM); in data set [7] it was 8 µg/mL (≈ 13.7 µM). The MIC90 was 0.5 µg/mL (≈ 0.855 µM) in the data set on Escherichia coli and 1 µg/mL (≈ 1.71 µM) with Citrobacter freundii. In data set [5], this compound displayed an MIC below 0.016 µg/mL. Moreover, the selectivity ratio in data set [6] was above 1000. Moreover, the CC50 at 72 h in data set [8] stood at 16 µg/mL (≈ 27.4 µM).
